From patent US10358456B2, “Platinum(II) complexes with selone ligands and method of use” (KING FAHD UNIVERSITY OF PETROLEUM AND MINERALS, priority 2017, dated 2019)

How the values were obtained:
[1] = test system: HeLa (cervical cancer cells); assay: MTT assay for anticancer activity (in vitro cytotoxicity), HeLa; assay type: cell-based, human; conditions: for IC50: MTT, incubated 24 h with compound, read-out: IC50 ± SEM, HeLa (concentration causing 50% reduction in cell viability)
Procedure: (§1) Cell Cultures: Human Cervical cancer HeLa and Brest cancer cell lines MCF-7 were grown in Dulbecco's modified Eagle's medium (DMEM) supplemented with 10% Fetal Bovine Serum (FBS), and 1% penicillin (10,000 units), streptomycin (10 mg), in 74 cm2 flask and incubated until 80% confluences obtained in humidified environment of, 5% CO2, 95% air, 37° C.
(§2) Complexes 1-7 and cisplatin (positive control) at 0.195 μM, 0.39 μM, 0.781 μM, 1.56 μM, 3.125 μM, 6.25 μM, 12.5 μM, 25 μM, and 50 μM concentrations were prepared in DMEM. Cancer cells were seeded and maintained in quadruplicate in a 96-well tissue culture plate at 5×10^4 cells per well in 200 μl of same medium. The cancer cells were incubated 24 hours before the treatment. All compounds were dissolved in 50% DMSO. Therefore, DMSO was used as a negative control. The final DMSO concentration, in each well, was less than 0.1%. The cancer cells were treated with the synthesized compounds 1-8 along with the cisplatin and the resultant cultures were incubated for 24 h. The medium of wells was discarded and 100 μL DMEM containing MTT (3-(4,5-dimethylthiazol-2-yl)-2,5-diphenyltetrazolium bromide) (5 mg/mL) was added to the wells and incubated in a CO2 incubator at 37° C. in the dark for 4 hrs. After incubation, a purple colored formazan (artificial chromogenic dye, a product of the reduction of water insoluble tetrazolium salts e.g., MTT by dehydrogenases and reductases) in the cells is produced and appeared as dark crystals in the bottom of the wells. The medium of culture was discarded from each well carefully to avoid disruption of the monolayer. 100 μL of isopropanol was added in each well. The solution was thoroughly mixed in the wells to dissolve the formazan crystals which ultimately results into a purple solution. The absorbance of the 96-well plate was measured at 570 nm with Mithras2LB943 against reagent blank. All data presented are mean±standard deviation.
(§3) To examine the possible anticancer effect of cisplatin and the prepared complexes, two human tumor cell lines, HeLa (cervical cancer cells) and MCF7 (breast cancer cells) were used. The results of in vitro cytotoxic activity are expressed as IC50 (concentration causing 50% reduction in cell viability) and are presented in Table 5.

[2] = test system: MCF7 (breast cancer cells); assay: MTT assay for anticancer activity (in vitro cytotoxicity), MCF7; assay type: cell-based, human; conditions: for IC50: MTT, incubated 24 h with compound, read-out: IC50 ± SEM, MCF7 (concentration causing 50% reduction in cell viability)
Procedure: as §1, §2, §3

| SMILES | IC50 [1] | IC50 [2] | antiproliferative potency in HeLa cells, compared among the complexes and with cisplatin ([1]; in words) | activity against MCF7 cells, compared among the complexes and with cisplatin ([2]; in words) |
| --- | --- | --- | --- | --- |
| [Cl][Pt]([Cl])([Se]=C1NCCCCN1)[Se]=C1NCCCCN1 [(7), Pt(DiapSe)2Cl2] | 11.5 ± 0.22 µM | 16.68 ± 0.02 µM |  |  |
| NC(N)=[Se][Pt]([Cl])([Cl])[Se]=C(N)N [(1), Pt(SeU)2Cl2] | 19.78 ± 0.13 µM | 11.11 ± 0.05 µM |  |  |
| CCN1CCNC1=[Se][Pt]([Cl])([Cl])[Se]=C1NCCN1CC [(3), Pt(EtImSe)2Cl2] | 17.73 ± 0.14 µM | 8.59 ± 0.07 µM |  |  |
| [Cl][Pt]([Cl])([Se]=C1NCCCN1)[Se]=C1NCCCN1 [(6), Pt(DiazSe)2Cl2] | 11.3 ± 0.2 µM | 12.27 ± 0.01 µM | strongest antiproliferative potency |  |
| N.N.[Cl][Pt][Cl] [Cisplatin, cisplatin, reference compound] | 21.4 ± 0.73 µM | 8.98 ± 0.07 µM |  |  |
| CCCN1CCNC1=[Se][Pt]([Cl])([Cl])[Se]=C1NCCN1CCC [(4), Pt(PrImSe)2Cl2] | 12.9 ± 0.16 µM | 18.64 ± 0.03 µM |  |  |
| [Cl][Pt]([Cl])(=[Se]=C1NCCN1)=[Se]=C1NCCN1 [(2), Pt(ImSe)2Cl2] |  |  |  | most active |
| CC(C)N1CCNC1=[Se][Pt]([Cl])([Cl])[Se]=C1NCCN1C(C)C [(5), Pt(i-PrImSe)2Cl2] | 14 ± 0.16 µM | 8.3 ± 0.06 µM |  |  |
